Reference: patent publication US20240182431A1, “NEW CONTRAST AGENT FOR USE IN MAGNETIC RESONANCE IMAGING” (Bayer Aktiengesellschaft, priority 2021, published 2024)

Key:
[1] = Partition coefficient (logP butanol/buffer); assay type: physicochemical; details: 1-butanol / 50 mM Tris-HCl, pH 7.4, room temperature
[2] = Excretion study in rats (5 days) and residual gadolinium organ distribution (7 days); assay type: in vivo, rat; details: male rats, 0.1 mmol Gd/kg bw i.v.
Experimental: The excretion and organ distribution of Example 1 and 15 were determined in male rats (Han-Wistar, n=3). The compound was administered as a sterile aqueous solution (50 mmol Gd/L) as a bolus in the tail vein of the animals. The dose was 0.1 mmol Gd/kg bw.
Urine was collected in the following time periods 0-1 h, 1-3 h, 3-6 h, 6-24 h, 1-2 d and 2-5 d post injection […] and feces 0-1 d, 1-2 d and 2-5 d post injection. As a control, 3 animals were treated in the same way with RC1. On day 7 the animals were sacrificed, and the following organs were excised: blood, liver, kidney, spleen, heart, lung, brain, muscle, skin, stomach, gut, bone and bone marrow. The remaining carcass was freeze dried and ground to a fine powder. The Gd concentration in the organs and the carcass was determined by ICP-MS (ICP-MS Agilent 7500a, Waldbronn, Germany). The compounds are excreted via dual pathway (liver and kidney). Less than 1% of the administered dose was present in the body 7 days after the injection.

SMILES	Log P (butanol/buffer) [1]	other results
CCOCCOCCOc1ccc(C[C@H](C(=O)O)N2CCN(CC(=O)[O-])CCN(CC(=O)[O-])CCN(CC(=O)[O-])CC2)cc1.[Gd+3] [Example 4, gadolinium 2,2′,2″-{10-[(1R)-1-carboxy-2-{4-[2-(2-ethoxyethoxy)ethoxy]phenyl}ethyl]-1,4,7,10-tetraazacyclododecane-1,4,7-triyl}triacetate]	−1.61	
CCOCCOCCOc1ccc(CCC[C@@H](C(=O)O)N2CCN(CC(=O)[O-])CCN(CC(=O)[O-])CCN(CC(=O)[O-])CC2)cc1.[Gd+3] [Example 26, gadolinium 2,2′,2″-{10-[(1S)-1-carboxy-4-{4-[2-(2-ethoxyethoxy)ethoxy]phenyl}butyl]-1,4,7,10-tetraazacyclododecane-1,4,7-triyl}triacetate]	−1.01	
CCCOc1ccc(CCC(C(=O)O)N2CCN(CC(=O)[O-])CCN(CC(=O)[O-])CCN(CC(=O)[O-])CC2)cc1.[Gd+3] (centres unmarked) [Example 24, gadolinium 2,2′,2″-{10-[1-carboxy-3-(4-propoxyphenyl)propyl]-1,4,7,10-tetraazacyclododecane-1,4,7-triyl}triacetate]	−0.71	
CCCCOc1cccc(CCC[C@@H](C(=O)O)N2CCN([C@@H](CO)C(=O)[O-])CCN([C@@H](CO)C(=O)[O-])CCN([C@@H](CO)C(=O)[O-])CC2)c1.[Gd+3] [Example 34, gadolinium (2S,2′S,2″S)-2,2′,2″-{10-[(1S)-4-(3-butoxyphenyl)-1-carboxybutyl]-1,4,7,10-tetraazacyclododecane-1,4,7-triyl}tris(3-hydroxypropanoate)]	0.12	
COCC(C(=O)O)N1CCN(CC(=O)[O-])CCN(C(Cc2ccc(OCC(F)(F)C(F)F)cc2)C(=O)[O-])CCN(CC(=O)[O-])CC1.[Gd+3] (centres unmarked) [Example 45, gadolinium-2-{4,10-bis(carboxylatomethyl)-7-[1-carboxy-2-methoxyethyl]-1,4,7,10-tetraazacyclododecan-1-yl}-3-[4-(2,2,3,3-tetrafluoropropoxy)phenyl]propanoate]	−0.36	
CCOCCOCCOc1ccc(CC(C(=O)O)N2CCN(C(CCO)C(=O)[O-])CCN(C(CCO)C(=O)[O-])CCN(C(CCO)C(=O)[O-])CC2)cc1.[Gd+3] (centres unmarked) [Example 37, gadolinium-2,2′-{4-[1-carboxy-2-{4-[2-(2-ethoxyethoxy)ethoxy]phenyl}ethyl]-10-[1-carboxylato-3-hydroxypropyl]-1,4,7,10-tetraazacyclododecane-1,7-diyl}bis(4-hydroxybutanoate)]	−1.16	
CCOCCOCCOc1ccc(C[C@@H](C(=O)O)N2CCN(CC(=O)[O-])CCN(CC(=O)[O-])CCN(CC(=O)[O-])CC2)cc1.[Gd+3] [Example 3, gadolinium 2,2′,2″-{10-[(1S)-1-carboxy-2-{4-[2-(2-ethoxyethoxy)ethoxy]phenyl}ethyl]-1,4,7,10-tetraazacyclododecane-1,4,7-triyl}triacetate]	−1.61	
CCOCCOCCOc1ccc(CCC[C@@H](C(=O)O)N2CCN([C@@H](CO)C(=O)[O-])CCN([C@@H](CO)C(=O)[O-])CCN([C@@H](CO)C(=O)[O-])CC2)cc1.[Gd+3] [Example 15, gadolinium (2S,2′S,2″S)-2,2′,2″-{10-[(1S)-1-carboxy-4-{4-[2-(2-ethoxyethoxy)ethoxy]phenyl}butyl]-1,4,7,10-tetraazacyclododecane-1,4,7-triyl}tris(3-hydroxypropanoate)]	−1.00	Excretion Urine ([2]; 0-1 h post injection): 12.6 ± 11.1% Dose; Excretion Feces ([2]; 0-1 d post injection): 78.6 ± 6.2% Dose; Excretion Urine ([2]; 1-3 h post injection): 17.3 ± 3.4% Dose; Excretion Feces ([2]; 1-2 d post injection): 80.0 ± 5.3% Dose; Excretion Urine ([2]; 1-2 d post injection): 17.7 ± 3.3% Dose; Excretion Feces ([2]; 2-5 d post injection): 80.0 ± 5.3% Dose; Excretion Urine ([2]; 2-5 d post injection): 17.7 ± 3.3% Dose; Excretion Urine ([2]; 3-6 h post injection): 17.4 ± 3.3% Dose; Excretion Urine ([2]; 6-24 h post injection): 17.6 ± 3.3% Dose; Σ organs and carcass ([2]; 7 d post injection): 0.11 ± 0.03% Dose; Total recovery [2]: 97.9 ± 5.4% Dose
CCOCCOc1ccc(CC(C(=O)O)N2CCN(CC(=O)[O-])CCN(C(COC)C(=O)[O-])CCN(CC(=O)[O-])CC2)cc1.[Gd+3] (centres unmarked) [Example 38, gadolinium 2-[7-{1-carboxy-2-[4-(2-ethoxyethoxy)phenyl]ethyl}-4,10-bis(carboxylatomethyl)-1,4,7,10-tetraazacyclododecan-1-yl]-3-methoxypropanoate]	−1.41	
CCOCCOCCOc1ccc(CCC[C@@H](C(=O)O)N2CCN([C@H](CO)C(=O)[O-])CCN([C@H](CO)C(=O)[O-])CCN([C@H](CO)C(=O)[O-])CC2)cc1.[Gd+3] [Example 20, gadolinium (2R,2′R,2″R)-2,2′,2″-{10-[(1S)-1-carboxy-4-{4-[2-(2-ethoxyethoxy)ethoxy]phenyl}butyl]-1,4,7,10-tetraazacyclododecane-1,4,7-triyl}tris(3-hydroxypropanoate)]	−1.11	
CCCC(C(=O)[O-])N1CCN(CC(=O)[O-])CCN(C(Cc2ccc(OCC)cc2)C(=O)O)CCN(CC(=O)[O-])CC1.[Gd+3] (centres unmarked) [Example 29, gadolinium 2-{7-[1-carboxy-2-(4-ethoxyphenyl)ethyl]-4,10-bis(carboxylatomethyl)-1,4,7,10-tetraazacyclododecan-1-yl}pentanoate]	−0.53	
CCOCCOCCOCCOc1ccc(CC(C(=O)O)N2CCN(CC(=O)[O-])CCN(C(CO)C(=O)[O-])CCN(CC(=O)[O-])CC2)cc1.[Gd+3] (centres unmarked) [Example 42, gadolinium-2-{7-[1-carboxy-2-(4-{2-[2-(2-ethoxyethoxy)ethoxy]ethoxy}phenyl)ethyl]-4,10-bis(carboxylatomethyl)-1,4,7,10-tetraazacyclododecan-1-yl}-3-hydroxypropanoate]	−1.60	
O=C([O-])CN1CCN(CC(=O)[O-])CCN([C@H](Cc2ccc(OCC(F)(F)F)cc2)C(=O)O)CCN(CC(=O)[O-])CC1.[Gd+3] [Example 47, gadolinium 2,2′,2″-(10-{(1R)-1-carboxy-2-[4-(2,2,2-trifluoroethoxy)phenyl]ethyl}-1,4,7,10-tetraazacyclododecane-1,4,7-triyl)triacetate]	−0.77	
CCOCCOCCOc1ccc(CCC[C@H](C(=O)O)N2CCN([C@@H](CO)C(=O)[O-])CCN([C@@H](CO)C(=O)[O-])CCN([C@@H](CO)C(=O)[O-])CC2)cc1.[Gd+3] [Example 18, gadolinium (2S,2′S,2″S)-2,2′,2″-{10-[(1R)-1-carboxy-4-{4-[2-(2-ethoxyethoxy)ethoxy]phenyl}butyl]-1,4,7,10-tetraazacyclododecane-1,4,7-triyl}tris(3-hydroxypropanoate)]	−1.11	
CCOCCOCCOc1ccc(CCC[C@H](C(=O)O)N2CCN([C@H](CO)C(=O)[O-])CCN([C@H](CO)C(=O)[O-])CCN([C@H](CO)C(=O)[O-])CC2)cc1.[Gd+3] [Example 19, gadolinium (2R,2R,2″R)-2,2′,2″-{10-[(1R)-1-carboxy-4-{4-[2-(2-ethoxyethoxy)ethoxy]phenyl}butyl]-1,4,7,10-tetraazacyclododecane-1,4,7-triyl}tris(3-hydroxypropanoate)]	−0.95	
CCOc1ccc(CCCC(C(=O)O)N2CCN(CC(=O)[O-])CCN(CC(=O)[O-])CCN(CC(=O)[O-])CC2)cc1.[Gd+3] (centres unmarked) [Example 28, gadolinium 2,2′,2″-{10-[1-carboxy-4-(4-ethoxyphenyl)butyl]-1,4,7,10-tetraazacyclododecane-1,4,7-triyl}triacetate]	−0.71	
CCOCCOCCOc1ccc(CC(C(=O)O)N2CCN(CC(=O)[O-])CCN(C(CO)C(=O)[O-])CCN(CC(=O)[O-])CC2)cc1.[Gd+3] (centres unmarked) [Example 41, gadolinium-2-{7-[1-carboxy-2-{4-[2-(2-ethoxyethoxy)ethoxy]phenyl}ethyl]-4,10-bis(carboxylatomethyl)-1,4,7,10-tetraazacyclododecan-1-yl}-3-hydroxypropanoate]	−1.61	
CCOCCOCCOc1ccc(CCC[C@@H](C(=O)O)N2CCN(C(CO)C(=O)[O-])CCN(C(CO)C(=O)[O-])CCN(C(CO)C(=O)[O-])CC2)cc1.[Gd+3] (mixture of isomers) [Example 21, gadolinium-2,2′,2″-{10-[(1S)-1-carboxy-4-{4-[2-(2-ethoxyethoxy)ethoxy]phenyl}butyl]-1,4,7,10-tetraazacyclododecane-1,4,7-triyl}tris(3-hydroxypropanoate)]	−1.03	
